The source of these data is US9981956B2, “Small molecule inhibitors of fibrosis” (THE CALIFORNIA INSTITUTE FOR BIOMEDICAL RESEARCH, priority 2013, dated 2018).

The subject of the experiment is bleomycin-induced lung fibrosis. The experiment in a line: Bleomycin-induced lung fibrosis model. The format is in vivo, mouse. As to conditions: 10 mg/kg SID versus AM-152 (30 mg/kg BID) and pirfenidone (400 mg/kg BID). The text has this: These in vivo assays took 6-8 weeks to complete (including full histological analysis). Typical experiments consisted of groups of 6-8 animals treated with itraconazole (2-4 doses), 1 or 2 itraconazole analogues (2-4 doses), vehicle, and benchmark treatments (pirfenidone and AM-152). AM-152 (Amira Pharmaceuticals) is an LPA1 (Lysophosphatidic acid 1) receptor antagonist. This target has been described as relevant to exacerbation of IPF systems in a mouse bleomycin model (British Journal of Pharmacology (2010), 160, 1699-1713). AM-152 is an advanced compound on this target as has been previously described in more detail in WO 2012/078805 and was used as a positive control and comparator to the compound disclosed in this application.
Nine-week old B6 male mice (Taconic farms) were surgically implanted with osmotic pumps delivering 25 mg/kg bleomycin for seven days. 17 days after surgery mice were treated with drug for 2 weeks. Drug treatments were administered as described in study design (FIG. 14). Previously described anti-fibrotic drugs AM-152 and pirfenidone were used as positive control drugs. […] Stained lung sections were analyzed according to a modified Ashcroft scoring system (FIG. 16) and using an unbiased automated image analysis method. […] Total stained area was then determined by using the area measurement function within ImageJ.

SMILES strings stand for the structures.

As for `CCC(C)n1ncn(-c2ccc(N3CCN(c4ccc(OC[C@@H]5CO[C@@](Cn6nccn6)(c6ccccc6)O5)cc4)CC3)cc2)c1=O` (stereo partly shown) [Compound 42], the “Lung fibrosis disease severity compared to control compounds” value was “decreased lung fibrosis disease severity with efficacy that was as good or better”.
